Laboratory results from patent publication US10358434B2, “2-(3-pyridinyl)-1H-benzimidazole derivative compound and medicament containing same” (NIHON MEDI-PHYSICS CO., LTD., priority 2014, dated 2019).

Key:
[1] = tested on: human adrenal gland section expressing aldosterone-producing adenoma; assay: In vitro autoradiography using human adrenal adenoma; type: binding; details: section of FIG. 17(b)
How it was run: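 Autoradiography readout: PSL in equal-sized ROIs over adenoma (B2) and normal adrenal cortex (B1), expressed as B2/B1 and decay-corrected using half-life, applied activity and plate contact time. Tissue was surgically excised human adrenal, frozen and cut at 7 μm, incubated 10 min with 5-33 kBq/mL tracer in BSA-containing PBS, then imaged after 16-20 h exposure.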

[2] = Plasma stability evaluation (TLC analysis); type: in vitro ADME; details: 37° C., 60 minutes, TLC analysis
Method: Evaluation was made using a heparin-treated normal human plasma pool (Kohjin Bio Co., Ltd.). Compounds [^18F] 100, [^18F] 200, [^123I] 400, [^18F] 500, and [^123I] 601 to 610 obtained by the methods shown in Examples 2, 4, 7, 9, 11, 13, 15, 17, 19, 21, 23, 25, 27, and 29 were each added to the aforementioned human plasma (5 mL), and the obtained mixture was then incubated at 37° C. for 60 minutes. Thereafter, the mixture was centrifuged with addition of methanol, so that a deproteinization treatment was carried out. Thereafter, stability was evaluated by TLC analysis. As TLC analysis conditions, the TLC analysis conditions applied upon the above described synthesis of each compound were applied.

[3] = In vivo kinetics experiment (radioactivity distribution); parameters: species or system Wistar male rat; details: rat i.v., mean ± SD
How it was run: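 Tissue radioactivity (% ID/g) and adrenal-to-blood, liver, kidney, small intestine, muscle and fat ratios determined at 10, 30 and 60 min post-dose. Tracers (approximately 1 to 3.7 MBq, saline with 1 w/v % ascorbic acid) injected i.v. into caudal vein of anesthetized 9-week male Wistar rats; organs excised, weighed, counted.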

## FCCn1c(-c2cncc(Cn3ccnc3)c2)nc2ccc([123I])cc21 [[^123I] 604, 1-(2-Fluoroethyl)-2-[5-{(imidazol-1-yl)methyl}pyridin-3-yl]-6-[^123I]iodobenzimidazole]
[1]
  B2/B1 accumulation ratio: 1.93
[1]; site 71b
  B2 (PSL value, aldosterone-producing adenoma): 3493
[1]; site 72b
  B1 (PSL value, normal adrenal cortex): 1813
[2]
  Radiochemical purity after incubation in human plasma: 85%
[3]; 10 min after administration
  Adrenal gland/blood ratio of radioactivity accumulation: 75.41 ± 30.78
  Adrenal gland/fat ratio of radioactivity accumulation: 92.23 ± 49.88
  Adrenal gland/kidney ratio of radioactivity accumulation: 4.89 ± 2.15
  Adrenal gland/liver ratio of radioactivity accumulation: 2.48 ± 1.00
  Adrenal gland/muscle ratio of radioactivity accumulation: 67.00 ± 51.23
  Adrenal gland/small intestine ratio of radioactivity accumulation: 7.85 ± 3.21
  Radioactivity distribution Adrenal gland: 10.24 ± 4.48 % ID/g
  Radioactivity distribution Bladder (including urine): 0.43 ± 0.13 % ID/g
  Radioactivity distribution Blood: 0.13 ± 0.01 % ID/g
  Radioactivity distribution Fat: 0.11 ± 0.01 % ID/g
  Radioactivity distribution Femur: 0.85 ± 0.40 % ID/g
  Radioactivity distribution Heart: 0.65 ± 0.09 % ID/g
  Radioactivity distribution Kidney: 2.09 ± 0.09 % ID/g
  Radioactivity distribution Large intestine: 0.11 ± 0.01 % ID/g
  Radioactivity distribution Liver: 4.09 ± 0.45 % ID/g
  Radioactivity distribution Lung: 0.98 ± 0.16 % ID/g
  Radioactivity distribution Muscle (lower limbs): 0.18 ± 0.05 % ID/g
  Radioactivity distribution Remaining whole body: 0.24 ± 0.01 % ID/g
  Radioactivity distribution Small intestine: 1.29 ± 0.12 % ID/g
  Radioactivity distribution Spleen: 5.59 ± 1.78 % ID/g
  Radioactivity distribution Stomach: 0.66 ± 0.34 % ID/g
  Radioactivity distribution Testis: 0.04 ± 0.01 % ID/g
  Radioactivity distribution Whole brain: 0.01 ± 0.00 % ID/g
[3]; 30 min after administration
  Adrenal gland/blood ratio of radioactivity accumulation: 170.18 ± 126.19
  Adrenal gland/fat ratio of radioactivity accumulation: 156.19 ± 135.29
  Adrenal gland/kidney ratio of radioactivity accumulation: 9.69 ± 6.36
  Adrenal gland/liver ratio of radioactivity accumulation: 8.55 ± 5.73
  Adrenal gland/muscle ratio of radioactivity accumulation: 100.20 ± 67.99
  Adrenal gland/small intestine ratio of radioactivity accumulation: 4.37 ± 1.61
  Radioactivity distribution Adrenal gland: 15.46 ± 8.64 % ID/g
  Radioactivity distribution Bladder (including urine): 1.13 ± 0.19 % ID/g
  Radioactivity distribution Blood: 0.10 ± 0.02 % ID/g
  Radioactivity distribution Fat: 0.12 ± 0.03 % ID/g
  Radioactivity distribution Femur: 0.83 ± 0.03 % ID/g
  Radioactivity distribution Heart: 0.64 ± 0.04 % ID/g
  Radioactivity distribution Kidney: 1.65 ± 0.27 % ID/g
  Radioactivity distribution Large intestine: 0.14 ± 0.02 % ID/g
  Radioactivity distribution Liver: 1.89 ± 0.21 % ID/g
  Radioactivity distribution Lung: 0.97 ± 0.10 % ID/g
  Radioactivity distribution Muscle (lower limbs): 0.16 ± 0.02 % ID/g
  Radioactivity distribution Remaining whole body: 0.27 ± 0.01 % ID/g
  Radioactivity distribution Small intestine: 3.40 ± 0.80 % ID/g
  Radioactivity distribution Spleen: 6.71 ± 0.48 % ID/g
  Radioactivity distribution Stomach: 0.61 ± 0.14 % ID/g
  Radioactivity distribution Testis: 0.05 ± 0.01 % ID/g
  Radioactivity distribution Whole brain: 0.01 ± 0.00 % ID/g
[3]; 60 min after administration
  Adrenal gland/blood ratio of radioactivity accumulation: 329.57 ± 56.14
  Adrenal gland/fat ratio of radioactivity accumulation: 161.46 ± 40.00
  Adrenal gland/kidney ratio of radioactivity accumulation: 15.22 ± 1.37
  Adrenal gland/liver ratio of radioactivity accumulation: 19.61 ± 2.12
  Adrenal gland/muscle ratio of radioactivity accumulation: 130.19 ± 7.34
  Adrenal gland/small intestine ratio of radioactivity accumulation: 5.02 ± 1.64
  Radioactivity distribution Adrenal gland: 18.65 ± 1.67 % ID/g
  Radioactivity distribution Bladder (including urine): 3.04 ± 1.32 % ID/g
  Radioactivity distribution Blood: 0.06 ± 0.01 % ID/g
  Radioactivity distribution Fat: 0.12 ± 0.04 % ID/g
  Radioactivity distribution Femur: 0.90 ± 0.10 % ID/g
  Radioactivity distribution Heart: 0.56 ± 0.01 % ID/g
  Radioactivity distribution Kidney: 1.23 ± 0.01 % ID/g
  Radioactivity distribution Large intestine: 0.55 ± 0.52 % ID/g
  Radioactivity distribution Liver: 0.96 ± 0.10 % ID/g
  Radioactivity distribution Lung: 0.78 ± 0.03 % ID/g
  Radioactivity distribution Muscle (lower limbs): 0.14 ± 0.01 % ID/g
  Radioactivity distribution Remaining whole body: 0.28 ± 0.04 % ID/g
  Radioactivity distribution Small intestine: 3.98 ± 1.32 % ID/g
  Radioactivity distribution Spleen: 5.62 ± 1.11 % ID/g
  Radioactivity distribution Stomach: 0.89 ± 0.21 % ID/g
  Radioactivity distribution Testis: 0.05 ± 0.01 % ID/g
  Radioactivity distribution Whole brain: 0.01 ± 0.00 % ID/g
